Laboratory results: ChEMBL document CHEMBL5724796, “Tm Shift (DSF) assay results for EUbOPEN Chemogenomics Library” (2024)

Tests used:
[1] = target: Fibroblast growth factor receptor 2 (Homo sapiens) (UniProt P21802); details: Compound concentration 20.0 uM
Description: Thermal Shift Assay. Domain: start/stop: T457-E768

Peregrin (Homo sapiens) = target: T1, Peregrin (Homo sapiens) (UniProt P55201); details: Compound concentration 20.0 uM
T1 sequence (whole entry): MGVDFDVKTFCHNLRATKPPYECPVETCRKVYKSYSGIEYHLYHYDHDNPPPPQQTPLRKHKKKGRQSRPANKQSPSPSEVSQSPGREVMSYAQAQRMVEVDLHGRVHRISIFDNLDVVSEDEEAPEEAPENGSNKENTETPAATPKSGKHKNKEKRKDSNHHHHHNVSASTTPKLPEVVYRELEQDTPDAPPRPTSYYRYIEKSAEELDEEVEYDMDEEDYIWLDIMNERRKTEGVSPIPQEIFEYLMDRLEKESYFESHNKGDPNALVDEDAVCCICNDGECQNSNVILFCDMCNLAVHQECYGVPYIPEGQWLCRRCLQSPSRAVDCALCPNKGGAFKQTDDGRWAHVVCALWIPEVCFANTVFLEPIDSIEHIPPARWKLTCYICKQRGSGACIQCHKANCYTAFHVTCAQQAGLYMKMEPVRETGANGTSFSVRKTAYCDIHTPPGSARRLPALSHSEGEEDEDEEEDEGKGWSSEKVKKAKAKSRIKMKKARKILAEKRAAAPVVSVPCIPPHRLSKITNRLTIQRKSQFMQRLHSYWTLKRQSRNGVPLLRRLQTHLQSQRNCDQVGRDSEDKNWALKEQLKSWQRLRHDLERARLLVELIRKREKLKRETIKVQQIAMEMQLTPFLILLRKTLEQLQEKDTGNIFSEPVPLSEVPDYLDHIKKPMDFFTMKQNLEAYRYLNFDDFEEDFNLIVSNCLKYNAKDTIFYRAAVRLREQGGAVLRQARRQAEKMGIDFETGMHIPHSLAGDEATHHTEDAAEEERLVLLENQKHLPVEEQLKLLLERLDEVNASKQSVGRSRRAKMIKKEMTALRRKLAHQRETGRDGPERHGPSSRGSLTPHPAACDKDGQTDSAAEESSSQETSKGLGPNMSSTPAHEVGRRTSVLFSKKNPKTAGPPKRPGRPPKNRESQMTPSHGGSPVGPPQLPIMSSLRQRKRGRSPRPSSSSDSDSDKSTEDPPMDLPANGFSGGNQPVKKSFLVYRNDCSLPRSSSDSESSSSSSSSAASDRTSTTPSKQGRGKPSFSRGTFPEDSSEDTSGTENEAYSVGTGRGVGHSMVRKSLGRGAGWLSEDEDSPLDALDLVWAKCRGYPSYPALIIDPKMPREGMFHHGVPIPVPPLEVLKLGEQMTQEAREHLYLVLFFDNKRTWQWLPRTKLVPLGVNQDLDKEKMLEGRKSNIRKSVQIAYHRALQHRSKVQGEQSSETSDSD

Fibroblast growth factor receptor 2 (Homo sapiens), sequence (P21802 22-821 limits assumed): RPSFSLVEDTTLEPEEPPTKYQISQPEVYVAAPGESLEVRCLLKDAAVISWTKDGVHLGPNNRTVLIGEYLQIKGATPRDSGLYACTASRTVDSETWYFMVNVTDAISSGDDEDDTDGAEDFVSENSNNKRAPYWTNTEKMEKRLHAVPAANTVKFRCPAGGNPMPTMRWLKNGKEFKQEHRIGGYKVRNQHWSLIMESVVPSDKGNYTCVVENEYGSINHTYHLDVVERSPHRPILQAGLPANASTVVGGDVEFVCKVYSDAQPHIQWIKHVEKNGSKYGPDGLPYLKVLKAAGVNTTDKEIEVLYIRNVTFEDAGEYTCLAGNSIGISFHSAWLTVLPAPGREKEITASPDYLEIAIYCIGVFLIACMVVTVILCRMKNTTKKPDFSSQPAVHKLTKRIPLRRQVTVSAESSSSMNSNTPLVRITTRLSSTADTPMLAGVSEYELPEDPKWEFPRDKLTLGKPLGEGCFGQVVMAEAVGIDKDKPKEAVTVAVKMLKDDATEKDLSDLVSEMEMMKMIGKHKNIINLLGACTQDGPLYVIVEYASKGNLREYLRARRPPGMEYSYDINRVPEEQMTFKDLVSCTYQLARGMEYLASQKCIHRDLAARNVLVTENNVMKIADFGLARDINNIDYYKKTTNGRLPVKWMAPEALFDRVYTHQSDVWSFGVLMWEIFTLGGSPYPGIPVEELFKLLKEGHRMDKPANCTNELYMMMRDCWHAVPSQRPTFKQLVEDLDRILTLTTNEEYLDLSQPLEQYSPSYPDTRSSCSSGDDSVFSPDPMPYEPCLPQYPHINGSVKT

Structure (SMILES) | ΔTm [1] | ΔTm (Peregrin (Homo sapiens))
O=C(c1cc(Cc2n[nH]c(=O)c3ccccc23)ccc1F)N1CCN(C(=O)C2CC2)CC1 | -0.16 °C | 0.96 °C
O=C(c1cccc(-c2ccc(-c3cn(C(=O)N4CCCCC4c4ccccc4)nn3)cc2)c1)N1CCCCC1 (stereo not given) | 2.55 °C | 3.63 °C
CC(C)(Sc1ccncc1-c1ccc(C#N)c2ccccc12)C(=O)O | 0.42 °C | 0.05 °C
CC(C)(C)OC(=O)Nc1ccc(CNc2nccc(Nc3cc(C(=O)OC(C)(C)C)[nH]n3)n2)cc1 | 1.22 °C | -1.32 °C
O=C(NCCCCCCCCNC(=O)C(Cl)Cl)C(Cl)Cl | -0.34 °C | 0.99 °C
CNC(=O)O[C@H]1COc2ccc(N3CCN(C4COC4)CC3)cc2[C@@H]1NC(=O)c1ccc(F)cc1 | 0.9 °C | -1.56 °C
O=C(O)C1CCCN(CCC=C(c2ccccc2)c2ccccc2)C1 (stereo not given) | 0.41 °C | 0.59 °C
CCN(C(=O)c1cc(F)ccc1Oc1cncnc1N1CC2(CCN(C[C@H]3CC[C@H](NS(=O)(=O)CC)CC3)CC2)C1)C(C)C | 0.21 °C | 0.45 °C
N#Cc1ccc(N2N=C3c4ccc(C(=O)O)cc4CC[C@@H]3[C@@H]2C2CCCC2)cc1Cl | -1.06 °C | -8.37 °C
COc1c(CN)cc(CN)cc1OCCCN1Cc2ccccc2C1 | 0.36 °C | 0.41 °C
CCc1ccccc1NC(=O)CSC(=O)NNC(=O)[C@H](Cc1c[nH]c2ccccc12)NC(=O)OC(C)(C)C | -9.39 °C | -6.08 °C
CN1C(=O)c2c(nn(Cc3ccc(-c4cccc(F)n4)cc3)c2Nc2ccccc2)N2C1=N[C@@H]1CCC[C@@H]12 | -0.21 °C | -0.45 °C
CN1CC[C@@H](Oc2ccc(F)c(-c3nc4c(o3)C(=O)c3ccccc3C4=O)c2Cl)C1 | -0.38 °C | 0.26 °C
C[C@H](CN[C@@H](C(=O)Nc1ccc(-c2cnn(C)c2)cn1)c1ccccc1)c1ccc(C#N)cc1 | 0.96 °C | -3.43 °C
Cc1cc(N2C[C@@H](C)N[C@@H](C)C2)ncc1-c1ccc(-c2nc3c(ccn3C)c(=O)[nH]2)cc1 | 0.8 °C | 2.61 °C
O=C(Nc1c(Cl)cncc1Cl)c1ccc(OC(F)F)c(OCC2CC2)c1 | 0.95 °C | 0.52 °C
C[C@@H]1CCC[C@H](C)N1NC(=O)c1ccc(Cl)c(S(N)(=O)=O)c1 | -0.13 °C | 0.5 °C
Cc1c(F)c(N)cc(C(=O)Nc2cc(-n3cc(C(=O)NCCCN4CCOCC4)nn3)ccc2N2CCN(C)CC2)c1Cl | 0.03 °C | -0.29 °C
COc1ncc(C)cc1CC[C@@](O)(CC(=O)O)C(=O)O | 0.32 °C | 1.67 °C
CN(CCOc1ccc(-c2ccc3c(c2)OCO3)cc1C(C)(C)C)CC(=O)O | -0.25 °C | 2.31 °C
CCC(NC(=O)C(CC(C)C)NC(=O)OCc1ccccc1)C(=O)C(=O)NCCCN1CCOCC1 (stereo not given) | 1.24 °C | -1.22 °C
COc1cc(Nc2ncc(F)c(Nc3ccc4c(n3)N(COP(=O)(O)O)C(=O)C(C)(C)O4)n2)cc(OC)c1OC | 4.69 °C | -0.81 °C
COCc1nc(C(F)(F)F)[nH]c1-c1cc(C(=O)N2CC(c3ccc(C#N)cc3)C2)c(C)cc1C | 0.03 °C | 1.19 °C
NS(=O)(=O)OC[C@H]1C[C@@H](Nc2ccnc3cc(-c4cccc(SC(F)(F)F)c4)nn23)[C@H](O)[C@@H]1O | -0.4 °C | 3.28 °C
CC(C)CCn1c(CN2CCN(C(=O)C3CC3)CC2)nc2c1c(=O)n(C)c(=O)n2C | -0.8 °C | 1.75 °C
CC(=O)N1CCC(c2ccc(C(=O)NC(=N)N)cc2C(F)(F)F)CC1 | 0.33 °C | 1.3 °C
C[C@@H]1O[C@@H](CC(=O)O)CC2=C1C(=O)c1c(O)cccc1C2=O | -0.89 °C | 0.11 °C
O=C(NCc1ccc(F)cc1)C1CCN(S(=O)(=O)c2cc(Cl)cc(Cl)c2)CC1 | 0.75 °C | 2.64 °C
O=C(O)CCNC(=S)NCCCC[C@H](NS(=O)(=O)c1cccc(F)c1)C(=O)N[C@@H](Cc1c[nH]c2ccccc12)C(=O)NC1CCC1 | -0.15 °C | 1.86 °C
Cc1cc(/N=N/c2ccc3c(c2)CCC(=O)N3)c(N)cc1O | 0.16 °C | 1.01 °C
